Test results reported in ChEMBL document CHEMBL1141636, “New ultra-short acting hypnotic: synthesis, biological evaluation, and metabolic profile of ethyl 8-oxo-5,6,7,8-tetrahydro-thiazolo[3,2-a][1,3]diazepin-3-carboxylate (HIE-124)” (Bioorg Med Chem Lett, 2008).

Legend:
[1] = system: Mus musculus; assay: Potentiation of thiopental-induced hypnosis in mouse assessed as sleeping time at 100 mg/kg, iv by loss of righting reflex method; format: functional
[2] = system: Mus musculus; assay: Hypnotic effect in mouse assessed as sleeping time at 200 mg/kg, ip; format: functional; conditions: route intraperitoneal
[3] = system: Mus musculus; assay: Potentiation of thiopental-induced hypnosis in mouse assessed as sleeping time at 100 mg/kg, ip; format: functional; conditions: route intraperitoneal
[4] = system: Mus musculus; assay: Hypnotic effect in mouse assessed as sleeping time at 50 mg/kg, iv by loss of righting reflex method; format: functional
[5] = system: Mus musculus; assay: Potentiation of thiopental-induced hypnosis in mouse assessed as sleeping time at 50 mg/kg, iv by loss of righting reflex method; format: functional
[6] = system: Mus musculus; assay: Acute tolerance in mouse assessed as sleeping time at 200 mg/kg, ip; format: ADME, organism-based; set-up: dose 200 mg/kg, route intraperitoneal; conditions: in vivo
[7] = system: Mus musculus; assay: Potentiation of thiopental-induced hypnosis in mouse assessed as sleeping time at 200 mg/kg, ip; format: functional; conditions: route intraperitoneal
[8] = system: Mus musculus; assay: Hypnotic effect in mouse assessed as sleeping time at 100 mg/kg, iv by loss of righting reflex method; format: functional
[9] = system: Mus musculus; assay: Acute tolerance in mouse assessed as sleeping time at 200 mg/kg, ip 3 times day after 3 days; format: ADME, organism-based; set-up: dose 200 mg/kg, route intraperitoneal; conditions: in vivo, 72 h
[10] = system: Mus musculus; assay: Hypnotic effect in mouse assessed as sleeping time at 100 mg/kg, ip; format: functional; conditions: route intraperitoneal
[11] = system: Mus musculus; assay: Hypnotic effect in mouse assessed as sleeping time at 65 mg/kg, ip; format: functional; conditions: route intraperitoneal

Row | SMILES | Time [1] [min] | Time [2] [min] | Time [3] [min] | Time [4] [min] | Time [5] [min] | Time [6] [min] | Time [7] [min] | Time [8] [min] | Time [9] [min] | Time [10] [min] | Time [11] [min]
1 | CCOC(=O)C1=CSC2=NC(=O)CCCN12 | 25.7 | 9.1 | 49.2 | 0.75 | 19.9 | 10.3 | 155.7 | 1.48 | 8.7 | 2.4 | 
2 | CCCC(C)C1(CC)C(=O)[N-]C(=S)NC1=O.[Na+] (configuration not stated) [THIOPENTAL SODIUM] |  |  |  | 4.9 |  |  |  |  |  |  | 15.2
